Read-outs that look alike come from different tables or passages of the source.
Columns and labels:
Format in all cases: cell-based
[1] = test system: NCI-H23 (human lung cancer); experiment: In vitro cytotoxicity, SRB assay, NCI-H23; conditions: for IC50: Homo sapiens; for NCI-H23 SI: selectivity coefficient vs normal BALB/3T3 cells
[2] = test system: PFSK-1 (malignant primitive neuroectodermal tumour); experiment: In vitro cytotoxicity, SRB assay, PFSK-1; conditions: for IC50: Homo sapiens; for PFSK-1 SI: selectivity coefficient vs normal BALB/3T3 cells
[3] = test system: A2780 (human ovarian cancer); experiment: In vitro cytotoxicity, SRB assay, A2780; conditions: for IC50: Homo sapiens; for A2780 SI: selectivity coefficient vs normal BALB/3T3 cells
[4] = test system: A2780Cis (cisplatin-resistant human ovarian cancer); experiment: In vitro cytotoxicity, SRB assay, A2780Cis; conditions: for IC50: Homo sapiens, A2780cis, 72 h, read-out: A2780Cis IC50 (nM)
[5] = test system: A375 (human melanoma); experiment: In vitro cytotoxicity, SRB assay, A375; conditions: for IC50: Homo sapiens; for A375 SI: selectivity coefficient vs normal BALB/3T3 cells
[6] = test system: Hs294T (human melanoma); experiment: cells; conditions: for IC50: Homo sapiens, Hs 294T, 72 h with compound, SRB, n/a = non-active compound, read-out: Hs294T IC50; for Hs294T SI: selectivity coefficient vs normal BALB/3T3 cells
[7] = test system: PLC/PRF/5 (human liver cancer); experiment: cells; conditions: for IC50: Homo sapiens, PLC-PRF-5, 72 h with compound, SRB, n/a = non-active compound, read-out: PLC/PRF/5 IC50; for PLC/PRF/5 SI: selectivity coefficient vs normal BALB/3T3 cells
[8] = test system: SNU-16 (human gastric cancer); experiment: cells; conditions: for IC50: Homo sapiens, SNU-16, 72 h with compound, MTT, n/a = non-active compound, read-out: SNU-16 IC50; for SNU-16 SI: selectivity coefficient vs normal BALB/3T3 cells
[9] = test system: KG-1 (human acute myeloid leukaemia); experiment: In vitro cytotoxicity, MTT assay, KG-1; conditions: for IC50: Homo sapiens, 72 h with compound, MTT, n/a = non-active compound; for KG-1 SI: selectivity coefficient vs normal BALB/3T3 cells
[10] = test system: MIA PaCa-2 (human pancreatic cancer); experiment: cells; conditions: for IC50: Homo sapiens, MIA PaCa-2, 72 h with compound, SRB, n/a = non-active compound, read-out: MIA PaCa-2 IC50; for MIA PaCa-2 SI: selectivity coefficient vs normal BALB/3T3 cells
[11] = test system: BALB/3T3 (normal mouse fibroblasts); experiment: In vitro cytotoxicity, SRB assay, normal BALB/3T3 fibroblasts; conditions: Mus musculus, BALB/3T3; normal cells; 72 h with compound, SRB; n/a = non-active compound; read-out: BALB/3T3 IC50
[12] = NCI-H23, 72 h with compound, SRB, n/a = non-active compound, read-out: NCI-H23 IC50
[13] = PFSK-1, 72 h with compound, SRB, n/a = non-active compound, read-out: PFSK-1 IC50
[14] = A2780, 72 h with compound, SRB, n/a = non-active compound, read-out: A2780 IC50
[15] = A-375, 72 h with compound, SRB, n/a = non-active compound, read-out: A375 IC50

Structure (SMILES) | IC50 [1, 12] | NCI-H23 SI [1] | IC50 [2, 13] | PFSK-1 SI [2] | A2780 SI [3] | A2780Cis RI [4] | A2780Cis SI [4] | IC50 [4] | A375 SI [5] | IC50 [6] | Hs294T SI [6] | IC50 [7] | PLC/PRF/5 SI [7] | IC50 [8] | SNU-16 SI [8] | IC50 [9] | KG-1 SI [9] | IC50 [10] | MIA PaCa-2 SI [10] | IC50 [11] | other results
CC[C@@H](C(=O)[C@@H](C)[C@@H](O)[C@H](C)[C@@H]1O[C@@H]([C@@H](CC)C(=O)O)CC[C@@H]1C)[C@H]1O[C@]2(C=C[C@@H](NC(=O)NC3CCCC3)[C@]3(CC[C@@](C)([C@H]4CC[C@](O)(CC)[C@H](C)O4)O3)O2)[C@H](C)C[C@@H]1C [FLC-00351-1] | 112 nM | 0.6 | 10.7 nM | 6.2 | 148.7 | 1.2 | 125.6 | 0.53 nM | 0.6 | 360 nM | 0.2 | 22.3 nM | 3.0 | 24.5 nM | 2.7 | 23.7 nM | 2.8 | 22 nM | 3.0 | 66.6 nM | IC50 [3, 14]: 0.45 nM; IC50 [5, 15]: 104 nM
CC[C@@H](C(=O)[C@@H](C)[C@@H](O)[C@H](C)[C@@H]1O[C@@H]([C@@H](CC)C(=O)O)CC[C@@H]1C)[C@H]1O[C@]2(C=C[C@@H](NC(=S)Nc3ccc(Cl)c(Cl)c3)[C@]3(CC[C@@](C)([C@H]4CC[C@](O)(CC)[C@H](C)O4)O3)O2)[C@H](C)C[C@@H]1C [FLC-00379-1] | – | 11.0 | – | 14.9 | 22.8 | 0.2 | 121.2 | 0.81 nM | 1.4 | 108 nM | 0.9 | 22.1 nM | 4.5 | 18 nM | 5.5 | 39 nM | 2.5 | 52.6 nM | 1.9 | 98.2 nM | IC50 ([1]; NCI-H23, 72 h, read-out: NCI-H23 IC50 (nM)): 8.96 nM; IC50 ([2]; PFSK-1, 72 h, read-out: PFSK-1 IC50 (nM)): 6.6 nM; IC50 ([3]; A2780, 72 h, read-out: A2780 IC50 (nM)): 4.31 nM; IC50 ([5]; A-375, 72 h, read-out: A375 IC50 (nM)): 68.1 nM
CC[C@@H](C(=O)[C@@H](C)[C@@H](O)[C@H](C)[C@@H]1O[C@@H]([C@@H](CC)C(=O)O)CC[C@@H]1C)[C@H]1O[C@]2(C=C[C@@H](NC(=O)Nc3ccc(F)cc3F)[C@]3(CC[C@@](C)([C@H]4CC[C@](O)(CC)[C@H](C)O4)O3)O2)[C@H](C)C[C@@H]1C [FLC-00359-1] | 148 nM | 0.5 | 19.4 nM | 3.8 | 45.1 | 0.7 | 65.3 | 1.12 nM | 0.3 | 212 nM | 0.3 | 38.6 nM | 1.9 | 9.57 nM | 7.6 | 13.1 nM | 5.6 | 37.7 nM | 1.9 | 73 nM | IC50 [3, 14]: 1.62 nM; IC50 [5, 15]: 228 nM
CC[C@@H](C(=O)[C@@H](C)[C@@H](O)[C@H](C)[C@@H]1O[C@@H]([C@@H](CC)C(=O)O)CC[C@@H]1C)[C@H]1O[C@]2(C=C[C@@H](NC(=O)Nc3ccc(OC)cc3)[C@]3(CC[C@@](C)([C@H]4CC[C@](O)(CC)[C@H](C)O4)O3)O2)[C@H](C)C[C@@H]1C [FLC-00371-1] | 4.54 nM | 20.4 | 5.13 nM | 18.0 | 39.3 | 0.1 | 413.4 | 0.22 nM | 2.1 | 67.7 nM | 1.4 | 12.8 nM | 7.2 | 14.8 nM | 6.2 | 22.1 nM | 4.2 | 31.3 nM | 3.0 | 92.3 nM | IC50 [3, 14]: 2.35 nM; IC50 [5, 15]: 43.3 nM
CC[C@@H](C(=O)[C@@H](C)[C@@H](O)[C@H](C)[C@@H]1O[C@@H]([C@@H](CC)C(=O)O)CC[C@@H]1C)[C@H]1O[C@]2(C=C[C@@H](NC(=O)NC3CCCCC3)[C@]3(CC[C@@](C)([C@H]4CC[C@](O)(CC)[C@H](C)O4)O3)O2)[C@H](C)C[C@@H]1C [FLC-00384-1] | 27.7 nM | 3.8 | 10 nM | 10.5 | 25.9 | 0.3 | 80.0 | 1.31 nM | 0.9 | 141 nM | 0.7 | 28.2 nM | 3.7 | 21.1 nM | 5.0 | 19.7 nM | 5.3 | 62.6 nM | 1.7 | 105 nM | IC50 [3, 14]: 4.04 nM; IC50 [5, 15]: 120 nM
CC[C@@H](C(=O)[C@@H](C)[C@@H](O)[C@H](C)[C@@H]1O[C@@H]([C@@H](CC)C(=O)O)CC[C@@H]1C)[C@H]1O[C@]2(C=C[C@@H](NC(=O)NCc3ccccc3)[C@]3(CC[C@@](C)([C@H]4CC[C@](O)(CC)[C@H](C)O4)O3)O2)[C@H](C)C[C@@H]1C [FLC-00337-1] | 445 nM | 0.3 | 19.4 nM | 6.3 | 39.2 | 0.6 | 61.5 | 1.98 nM | 0.4 | 549 nM | 0.2 | 41.4 nM | 2.9 | 21.4 nM | 5.7 | 122 nM | 1.0 | 56 nM | 2.2 | 122 nM | IC50 [3, 14]: 3.1 nM; IC50 [5, 15]: 296 nM
CCCCCCCNC(=O)N[C@@H]1C=C[C@]2(O[C@H]([C@@H](CC)C(=O)[C@@H](C)[C@@H](O)[C@H](C)[C@@H]3O[C@@H]([C@@H](CC)C(=O)O)CC[C@@H]3C)[C@@H](C)C[C@H]2C)O[C@@]12CC[C@@](C)([C@H]1CC[C@](O)(CC)[C@H](C)O1)O2 [FLC-00350-1] | 101 nM | 1.0 | 7.25 nM | 14.2 | 42.0 | 0.9 | 44.9 | 2.3 nM | 0.4 | 419 nM | 0.2 | 23 nM | 4.5 | 18.2 nM | 5.7 | 35.9 nM | 2.9 | 37.4 nM | 2.8 | 103 nM | IC50 [3, 14]: 2.46 nM; IC50 [5, 15]: 251 nM
CC[C@@H](C(=O)[C@@H](C)[C@@H](O)[C@H](C)[C@@H]1O[C@@H]([C@@H](CC)C(=O)O)CC[C@@H]1C)[C@H]1O[C@]2(C=C[C@@H](NC(=S)Nc3ccc(C)cc3)[C@]3(CC[C@@](C)([C@H]4CC[C@](O)(CC)[C@H](C)O4)O3)O2)[C@H](C)C[C@@H]1C [FLC-00382-1] | 3.92 nM | 13.2 | 3.75 nM | 13.8 | 61.4 | 0.4 | 157.5 | 0.33 nM | 1.2 | 61.1 nM | 0.8 | 5.15 nM | 10.0 | 5.15 nM | 10.0 | 9.84 nM | 5.2 | 36.5 nM | 1.4 | 51.6 nM | IC50 [3, 14]: 0.84 nM; IC50 [5, 15]: 44.2 nM
CC[C@@H](C(=O)[C@@H](C)[C@@H](O)[C@H](C)[C@@H]1O[C@@H]([C@@H](CC)C(=O)O)CC[C@@H]1C)[C@H]1O[C@]2(C=C[C@@H](NC(=S)NCC(C)C)[C@]3(CC[C@@](C)([C@H]4CC[C@](O)(CC)[C@H](C)O4)O3)O2)[C@H](C)C[C@@H]1C [FLC-00369-1] | 5.98 nM | 13.8 | 5.84 nM | 14.1 | 16.2 | 0.4 | 44.8 | 1.84 nM | 1.7 | 106 nM | 0.8 | 12.4 nM | 6.6 | 16 nM | 5.1 | 11.7 nM | 7.1 | 44.7 nM | 1.8 | 82.3 nM | IC50 [3, 14]: 5.08 nM; IC50 [5, 15]: 49.6 nM

Source: US20240294541A1, “COMPOUNDS CONSTITUTING C20-MODIFIED SALINOMYCIN DERIVATIVES, A METHOD FOR OBTAINING THE SAME, A COMPOSITION CONTAINING THE SAME AND A USE OF SAID COMPOUNDS” (FILECLO SPOLKA Z OGRANICZONA ODPOWIEDZIALNOSCIA, priority 2021, published 2024)
